Source: publication PMC12612990, “PNA5, a glycosylated angiotensin-(1−7) mas receptor agonist for vascular dementia: A two species toxicology and toxicokinetic study” (Toxicology Reports, 2025)
Peptide text beside a SMILES is read from it. * marks the point of attachment. βGlc = OC[C@H]1O[C@@H](*)[C@H](O)[C@@H](O)[C@@H]1O

Key:
[1] = Toxicokinetics of PNA5 in Beagle dog plasma; settings: dogs, plasma; for AUC(0-t) / Cmax: Beagle, dog, sc, 20 mg/kg/day, 20 mg/kg/day (NOAEL), day 28; for AUC(0-t): mean AUC0–2hr; for Cmax: mean Cmax
Description: (§1) Toxicokinetic (TK) of PNA5 was obtained from plasma following a single and repeated subcutaneous injection administration of PNA5 once daily for 28 days. Blood samples were collected on days 1 and 28 at the following time points: pre-dose and at approximately 5, 15, 30, 60, and 120 min post-dose (equivalent to 0.083, 0.25, 0.5, 1, and 2 h).
(§2) For the rat study, a total of 6 rats for each sex were assigned randomly to treatment groups 2–4 (those treated with PNA5). Three rats per sex were assigned to group 1 (vehicle control). Rats were sampled in satellite groups; rats' blood was taken at alternating time points, resulting in a total n = 3 per time point for six animals. For the dog study, three animals per sex were assigned to group 2 and group 3, and five animals per sex were assigned to group 1 and group 4. Blood was collected from canines via venipuncture.
(§3) Blood was collected in heparinized tubes containing a protease inhibitor cocktail consisting of 4 mM 0-phenanthroline, 1.2 mM pepstatin A, and 0.5 M EDTA. Blood samples were centrifuged for 15 min at 2500 x g at room temperature. Plasma was transferred into pre-cooled, pre-labeled collection tubes, frozen immediately in liquid nitrogen/dry ice, and stored at −80 °C until analysis.
(§4) PNA5 levels were analyzed using ultra-high performance liquid chromatography (UHPLC) with tandem mass spectrometric (MS/MS) detection. Precision and accuracy, reproducibility, selectivity, carryover, recovery, matrix effects, dilution integrity, hemolysis, stock stability, and matrix stability were assessed prior to initiation of the validation. Samples (5 µL) were injected onto the column and separated using gradient elution. Target compounds were quantified by summing the height of previously identified fragment peaks in the LC-MS [3] spectra. The serum concentrations were estimated using a calibration curve, accounting for the dilution factors and the probe recoveries for each experiment. Standards were matrix-matched to samples and underwent the same sample preparation steps.
(§5) A noncompartmental analysis was used for parameter estimation. For PNA5 in plasma, the extravascular model was used for parameter estimation. For the rat study, all parameters were generated from PNA5 individual concentrations in plasma from days 1 and 28. Parameters were estimated using nominal dose levels and nominal sampling times relative to the dose administration. Plasma concentration values obtained at the pre-dose time point were used as the concentration at time 0 on days 1 and 28. For the dog study, all parameters were generated from PNA5 individual concentrations in plasma from days 1 and 28. Parameters were estimated using nominal dose levels and nominal sampling times relative to dose administration. Plasma concentration values obtained at the pre-dose time point were used as the concentration at time 0 on days 1 and 28. For Beagle dogs, concentration values reported as below the limit of quantitation (< 5 ng/mL) were assigned a value of 0.
(§6) The toxicokinetic parameters evaluated included the area under the curve of the plasma PNA5 concentration against time from time 0 (pre-dose) to 2 h (post-dose) (AUC0–2hr), the maximum plasma concentration (Cmax), time to maximum plasma concentration (Tmax), elimination rate (Kel), and the half-life. The area under the concentration vs. time curve was calculated using the linear trapezoidal method with linear interpolation for all profiles with at least three consecutive quantifiable concentrations. Kel was calculated from the slope using exponential regression of concentration versus time (Excel); exponential interpolations for all profiles include at least three concentrations plotted against time. Time 0 values and all concentrations listed as zero were excluded from Kel calculations. The half-life was calculated from Kel via the following equation: half-life Ln(2)/Kel.

[2] = Toxicokinetics of PNA5 in Sprague Dawley rat plasma; settings: for AUC(0-t) / Cmax / half-life / Tmax: both, Sprague Dawley, rat, sc; for AUC(0-t) / Cmax / half-life / Tmax / Kel: plasma; for AUC(0-t): AUC0–2, rats, n = 6, linear trapezoidal; for AUC(0-t) / Cmax / half-life / Kel: mean ± SD; for Cmax: Sprague Dawley rats, n = 6, UHPLC-MS/MS, noncompartmental; for half-life: n = 6, Ln(2)/Kel; for AUC0–2hr averaged accumulation ratio: day 1 to day 28, sexes combined; for F:M AUC0–2hr ratio: printed as on day 1; for fold increase in AUC0–2hr for a 40-fold increase in dose / fold increase in Cmax for a 40-fold increase in dose: 1 to 40 mg/kg/day; for Kel: n = 6, exponential regression
Description: as §1, §2, §3, §4, §5, §6

With `CC[C@H](C)[C@H](NC(=O)[C@H](Cc1ccc(O)cc1)NC(=O)[C@@H](NC(=O)[C@H](CCCNC(=N)N)NC(=O)[C@@H](N)CC(=O)O)C(C)C)C(=O)N[C@@H](Cc1c[nH]cn1)C(=O)N[C@@H](CO[C@@H]1O[C@H](CO)[C@@H](O)[C@H](O)[C@H]1O)C(N)=O` [PNA5, Ang-1–6-Ser-O-Glu-NH2] (H-DRVYIHS(βGlc)-NH2) the Kel ([1]; s.c. 20 mg/kg/day, day 28, sexes combined, mean ± SD, n = 10, exponential regression) was 0.86 ± 0.35, 10 hr^–1, the AUC(0-t) ([1]; female, females, females) was 1150 ng·h/mL and the Cmax ([1]; female, females, females) was 1140 ng/mL. The AUC(0-t) ([1]; male, males, males) was 1000 ng·h/mL, the Cmax ([1]; male, males, males) was 1100 ng/mL and the AUC(0-t) ([2]; 1 mg/kg/day, s.c. 1 mg/kg/day, day 1, sexes combined) was 0.263 ± 0.0315 ng·h/mL. It also gave an AUC(0-t) ([2]; 1 mg/kg/day, s.c. 1 mg/kg/day, day 28, sexes combined) of 0.464 ± 0.0741 ng·h/mL, a Cmax ([2]; 1 mg/kg/day, s.c. once daily 1 mg/kg/day, day 1, sexes combined) of 0.591 ± 0.25 ng/mL and a Cmax ([2]; 1 mg/kg/day, s.c. once daily 1 mg/kg/day, day 28, sexes combined) of 0.968 ± 0.28 ng/mL. For the same molecule, the half-life ([2]; 1 mg/kg/day, rats, s.c. 1 mg/kg/day, day 1, sexes combined) was 36 ± 6 min, the half-life ([2]; 1 mg/kg/day, rats, s.c. 1 mg/kg/day, day 28, sexes combined) was 30.6 ± 9 min and the Tmax ([2]; 1 mg/kg/day, rats, s.c. 1 mg/kg/day, day 1, sexes combined, average (range lowest to highest)) was 6.6 min. For the same molecule, the Tmax ([2]; 1 mg/kg/day, rats, s.c. 1 mg/kg/day, day 28, sexes combined, average (range lowest to highest)) was 10.2 min, the AUC(0-t) ([2]; 5 mg/kg/day, s.c. 5 mg/kg/day, day 1, sexes combined) was 1.55 ± 0.789 ng·h/mL and the AUC(0-t) ([2]; 5 mg/kg/day, s.c. 5 mg/kg/day, day 28, sexes combined) was 2.86 ± 1.72 ng·h/mL. For the same molecule, the Cmax ([2]; 5 mg/kg/day, s.c. once daily 5 mg/kg/day, day 1, sexes combined) was 3.37 ± 1.99 ng/mL, the Cmax ([2]; 5 mg/kg/day, s.c. once daily 5 mg/kg/day, day 28, sexes combined) was 5.35 ± 2.77 ng/mL and the half-life ([2]; 5 mg/kg/day, rats, s.c. 5 mg/kg/day, day 1, sexes combined) was 25.2 ± 7.8 min. The half-life ([2]; 5 mg/kg/day, rats, s.c. 5 mg/kg/day, day 28, sexes combined) was 22.2 ± 7.8 min, the Tmax ([2]; 5 mg/kg/day, rats, s.c. 5 mg/kg/day, day 1, sexes combined, average) was 4.98 min and the Tmax ([2]; 5 mg/kg/day, rats, s.c. 5 mg/kg/day, day 28, sexes combined, average (range lowest to highest)) was 11.4 min. The AUC(0-t) ([2]; 40 mg/kg/day, s.c. 40 mg/kg/day, day 1, sexes combined) was 16.1 ng·h/mL, the AUC(0-t) ([2]; 40 mg/kg/day, s.c. 40 mg/kg/day, day 28, sexes combined) was 29.6 ng·h/mL and the Cmax ([2]; 40 mg/kg/day, s.c. once daily 40 mg/kg/day, day 1, sexes combined) was 40.8 ng/mL. For the same molecule, the Cmax ([2]; 40 mg/kg/day, s.c. once daily 40 mg/kg/day, day 28, sexes combined) was 62.5 ng/mL, the half-life ([2]; 40 mg/kg/day, rats, s.c. 40 mg/kg/day, day 1, sexes combined) was 19.8 ± 4.8 min and the half-life ([2]; 40 mg/kg/day, rats, s.c. 40 mg/kg/day, day 28, sexes combined) was 23.4 ± 3.6 min. The Tmax ([2]; 40 mg/kg/day, rats, s.c. 40 mg/kg/day, day 1, sexes combined, average (range lowest to highest)) was 8.4 min, the Tmax ([2]; 40 mg/kg/day, rats, s.c. 40 mg/kg/day, day 28, sexes combined, average (range lowest to highest)) was 10.2 min and the “AUC0–2hr averaged accumulation ratio” value ([2]; rats, 1 mg/kg/day) was 1.76. For the same molecule, the “F:M AUC0–2hr ratio” value ([2]; rats, 5 mg/kg/day) was 0.66–1.58, the “AUC0–2hr averaged accumulation ratio” value ([2]; rats, 40 mg/kg/day) was 1.84 and the “F:M AUC0–2hr ratio” value ([2]; rats, 40 mg/kg/day) was 1.16–1.32. For the same molecule, the “fold increase in AUC0–2hr for a 40-fold increase in dose” value ([2]; rats, day 1, sexes combined) was ~61.22 fold, the “fold increase in Cmax for a 40-fold increase in dose” value ([2]; rats, day 1, sexes combined) was ~69.09 fold and the “fold increase in AUC0–2hr for a 40-fold increase in dose” value ([2]; rats, day 28, sexes combined) was ~63.93 fold. For the same molecule, the “fold increase in Cmax for a 40-fold increase in dose” value ([2]; rats, day 28, sexes combined) was ~64.56 fold, the “F:M Cmax ratios” value ([2]; rats, day 28, range across doses) was 1.24 – 1.37 and the Kel ([2]; rats, s.c. 1 mg/kg/day, day 1, sexes combined) was 1.18 ± 0.18, 6 hr–1. For the same molecule, the Kel ([2]; rats, s.c. 5 mg/kg/day, day 1, sexes combined) was 1.79 ± 0.67, 6 hr–1, the Kel ([2]; rats, s.c. 5 mg/kg/day, day 28, sexes combined) was 2.08 ± 0.86, 6 hr–1 and the Kel ([2]; rats, s.c. 40 mg/kg/day, day 1, sexes combined) was 2.24 ± 0.83, 6 hr–1. The Kel ([2]; rats, s.c. 40 mg/kg/day, day 28, sexes combined) was 1.82 ± 0.28, 6 hr–1 and the “time post-dose up to which PNA5 plasma concentrations were quantifiable” value ([2]; rats, s.c. 1, 5 or 40 mg/kg/day, day 1 and day 28, last sampling time 2 h) was “up to 2 h”.
